We go through two compounds from patent US10533044B2, “Integrin Antagonists” (The General Hospital Corporation, priority 2014, dated 2020).

Positions of bridges follow the written chain, without caps; N, C: chain ends. Non-standard residues stand in square brackets, D forms with d. Residues, ends and D or L forms follow the SMILES beside them. hArg = N=C(N)NCCCC[C@H](N)C(=O)O; Mpa = O=C(O)CCS

One data set deals with αVβ3. Put plainly: AP5 LIBS expression on αVβ3^N/S or Mn2+-activated αVβ3 in presence of R-epti-D. The data set is classed as cell-based. Particulars: αVβ3^N/S in Ca2+/Mg2+ or Mn2+-activated αVβ3; preliminary study. Here is the method:
FIG. 16. […] One experiment was done under each condition. […] Common residues are in black. […] Spheres represent the metal ion at MIDAS.
K562-αVβ3 cells, transiently transfected HEK293T or αVβ3^+M21 cells (0.5×10^6 in 100 μl WB) were incubated in the absence or presence of unlabeled soluble FN10 (5 μg) in Ca^2+/Mg^2+ or in Mn^2+ (30 min; at 25° C.). Alexa647-labeled AP5 Fab (plus Alexa488-labeled AP3, when HEK293T cells were used), unlabeled anti-LIBS-1 (all to 10 μg/ml) or LIBS-6 ascites (to 1:50 dilution) were added, and the cells incubated for an additional 30 min before washing. APC-labeled goat anti-mouse Fc-specific antibody was added to anti-LIBS-1- or anti-LIBS-6-bound M21 cells, cells were incubated for an additional 30 min at 4° C. then washed, resuspended, fixed in 4% paraformaldehyde and analyzed by flow cytometry. LIBS epitope expression was measured and expressed as MFI (in case of K562-αVβ3 or M21 cells) and normalized (in case of HEK293T cells) by dividing its MFI by the MFI for Alexa488-labeled AP3, and multiplied by 100.

Data set [1] has as its target T1, αVβ3^N/S (Homo sapiens, UniProt P05106+P06756, N365S). The experiment in a line: biochemical. The following applies: IC50, inhibition of fibrinogen binding to αVβ3^N/S, HEK293 cells, constitutively active αVβ3^N/S.
Another data set has as its target platelet integrin αIIbβ3 (Homo sapiens, UniProt P05106+P08514). Particulars: parenteral use; cited from earlier work.
Data set [2] addresses T1, αVβ3^N/S.

T1 sequence (P06756 31-889 limits assumed): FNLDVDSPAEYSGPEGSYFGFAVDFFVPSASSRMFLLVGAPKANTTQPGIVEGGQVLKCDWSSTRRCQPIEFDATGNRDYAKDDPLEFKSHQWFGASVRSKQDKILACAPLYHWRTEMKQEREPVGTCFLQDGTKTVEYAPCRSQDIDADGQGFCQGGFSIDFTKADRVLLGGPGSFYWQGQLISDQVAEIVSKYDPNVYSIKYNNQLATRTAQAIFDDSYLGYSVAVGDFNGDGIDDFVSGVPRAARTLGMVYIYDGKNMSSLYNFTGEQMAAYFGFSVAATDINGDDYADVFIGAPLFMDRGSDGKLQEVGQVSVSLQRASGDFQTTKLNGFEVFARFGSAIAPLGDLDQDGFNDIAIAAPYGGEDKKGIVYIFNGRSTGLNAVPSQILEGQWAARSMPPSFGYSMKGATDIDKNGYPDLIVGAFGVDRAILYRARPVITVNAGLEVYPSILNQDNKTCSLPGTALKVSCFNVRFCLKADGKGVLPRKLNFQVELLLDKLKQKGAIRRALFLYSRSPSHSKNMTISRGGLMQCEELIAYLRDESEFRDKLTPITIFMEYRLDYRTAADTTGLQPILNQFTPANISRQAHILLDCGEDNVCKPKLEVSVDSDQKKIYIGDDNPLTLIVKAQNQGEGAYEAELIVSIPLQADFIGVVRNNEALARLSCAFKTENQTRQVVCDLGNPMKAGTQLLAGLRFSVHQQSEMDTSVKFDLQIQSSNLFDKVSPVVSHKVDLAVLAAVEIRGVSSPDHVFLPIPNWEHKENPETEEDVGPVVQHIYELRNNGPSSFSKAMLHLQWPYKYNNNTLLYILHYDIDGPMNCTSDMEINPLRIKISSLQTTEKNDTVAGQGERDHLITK
T1 sequence (P06756 891-1048 partner limits assumed): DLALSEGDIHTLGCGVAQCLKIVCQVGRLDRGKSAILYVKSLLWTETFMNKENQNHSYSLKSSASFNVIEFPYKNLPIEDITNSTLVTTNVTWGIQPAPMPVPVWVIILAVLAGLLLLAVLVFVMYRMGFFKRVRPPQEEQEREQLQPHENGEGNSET
T1 sequence (P05106 27-788 N365S): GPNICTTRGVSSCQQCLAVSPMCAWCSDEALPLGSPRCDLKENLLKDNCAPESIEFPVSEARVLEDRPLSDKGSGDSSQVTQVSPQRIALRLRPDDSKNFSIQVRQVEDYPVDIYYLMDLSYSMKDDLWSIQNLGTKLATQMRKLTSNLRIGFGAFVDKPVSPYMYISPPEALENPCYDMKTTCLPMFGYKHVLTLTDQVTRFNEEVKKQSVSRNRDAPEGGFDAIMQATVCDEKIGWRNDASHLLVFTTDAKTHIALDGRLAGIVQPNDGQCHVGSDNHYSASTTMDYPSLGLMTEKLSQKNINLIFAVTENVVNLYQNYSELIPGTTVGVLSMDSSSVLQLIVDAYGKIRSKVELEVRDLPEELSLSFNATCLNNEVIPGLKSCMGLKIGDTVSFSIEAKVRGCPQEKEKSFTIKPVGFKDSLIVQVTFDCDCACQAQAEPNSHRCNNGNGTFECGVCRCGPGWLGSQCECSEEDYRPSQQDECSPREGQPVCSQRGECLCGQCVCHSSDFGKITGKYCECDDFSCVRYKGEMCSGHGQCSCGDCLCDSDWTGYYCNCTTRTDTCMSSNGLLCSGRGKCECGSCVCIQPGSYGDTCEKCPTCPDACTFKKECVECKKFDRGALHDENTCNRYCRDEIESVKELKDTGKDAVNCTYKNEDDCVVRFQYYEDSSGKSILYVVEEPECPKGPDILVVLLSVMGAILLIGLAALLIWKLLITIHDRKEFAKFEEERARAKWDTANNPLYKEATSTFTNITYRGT
platelet integrin αIIbβ3, sequence (P08514 32-887 limits assumed): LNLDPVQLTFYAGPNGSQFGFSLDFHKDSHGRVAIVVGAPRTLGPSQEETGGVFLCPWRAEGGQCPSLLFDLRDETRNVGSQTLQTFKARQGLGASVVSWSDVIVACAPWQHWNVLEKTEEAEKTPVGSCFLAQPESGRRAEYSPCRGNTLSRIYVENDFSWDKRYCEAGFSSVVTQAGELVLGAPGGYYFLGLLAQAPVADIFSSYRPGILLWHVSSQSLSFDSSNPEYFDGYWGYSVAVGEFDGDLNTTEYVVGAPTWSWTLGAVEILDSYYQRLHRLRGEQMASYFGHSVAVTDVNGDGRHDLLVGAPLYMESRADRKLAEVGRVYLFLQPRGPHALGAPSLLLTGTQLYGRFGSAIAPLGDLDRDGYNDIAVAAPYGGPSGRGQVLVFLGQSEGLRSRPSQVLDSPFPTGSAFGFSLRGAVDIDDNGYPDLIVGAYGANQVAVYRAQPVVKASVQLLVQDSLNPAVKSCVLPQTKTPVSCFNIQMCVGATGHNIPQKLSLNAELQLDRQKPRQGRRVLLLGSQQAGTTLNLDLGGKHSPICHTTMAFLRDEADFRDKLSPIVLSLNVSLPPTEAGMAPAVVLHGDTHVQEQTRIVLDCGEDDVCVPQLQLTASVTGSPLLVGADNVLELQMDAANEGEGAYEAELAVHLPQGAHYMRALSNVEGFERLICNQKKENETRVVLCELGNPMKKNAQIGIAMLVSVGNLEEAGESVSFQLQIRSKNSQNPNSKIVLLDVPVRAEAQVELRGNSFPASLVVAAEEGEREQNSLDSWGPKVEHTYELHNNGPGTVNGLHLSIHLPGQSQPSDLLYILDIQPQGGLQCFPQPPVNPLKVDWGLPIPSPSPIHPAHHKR
platelet integrin αIIbβ3, sequence (P08514 891-1039 partner limits assumed): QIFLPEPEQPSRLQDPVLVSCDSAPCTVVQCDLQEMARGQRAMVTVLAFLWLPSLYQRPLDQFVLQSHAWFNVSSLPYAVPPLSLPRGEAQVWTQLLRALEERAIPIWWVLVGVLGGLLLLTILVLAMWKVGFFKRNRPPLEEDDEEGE
platelet integrin αIIbβ3, sequence (P05106 27-788): as the sequence (P05106 27-788 N365S) above, with S339N counted along it

What is called IC50 is the concentration needed to halve the response being measured. A high value points to lower potency. As to `N=C(N)NCCC[C@@H]1NC(=O)CCSSC[C@@H](C(N)=O)NC(=O)[C@@H]2CCCN2C(=O)[C@@H](Cc2c[nH]c3ccccc23)NC(=O)[C@H](CC(=O)O)NC(=O)CNC1=O` [R-epti-D] ([Mpa]RGD[dW]PC-NH2; disulfide 1-7), in the data set with αVβ3, the “AP5 LIBS expression” value is reported as “reduced AP5 LIBS expression”. Moreover, the IC50 at αVβ3^N/S [1] was 2080 nM; at αVβ3^N/S [1] (converted), roughly 2000 nM.

As to `N=C(N)NCCCC[C@@H]1NC(=O)CCSSC[C@@H](C(N)=O)NC(=O)[C@@H]2CCCN2C(=O)[C@H](Cc2c[nH]c3ccccc23)NC(=O)[C@H](CC(=O)O)NC(=O)CNC1=O` [eptifibatide] ([Mpa][hArg]GDWPC-NH2; disulfide 1-7), at platelet integrin αIIbβ3, the “Patients with severe thrombocytopenia” value is roughly 2%. The “Binding to αVβ3” value on αVβ3^N/S [2] is on record as “does not bind”.
